Test results: patent US11939314B2, “Quinolin-2-one derivatives” (MERCK PATENT GMBH, priority 2016, dated 2024)

Columns and labels:
[1] = molecular target: T1, c-Kit(V654A) (Homo sapiens, UniProt P10721, V654A); assay: c-Kit(V654A) assay; assay type: biochemical; conditions: recombinant human c-Kit aa 544-end, 200 μM ATP, 1.4E-06 means 1.4×10^−6, read-out: Inhibition (IC50) of c-KIT (V654A)
T1 construct: amino acids 544-end containing the V654A mutation; GST (N)
Method in brief: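 Radiometric filter-binding read-out: substrate 33P incorporation counted by scintillation after P30 filtermat washes in 75 mM phosphoric acid and methanol. Enzyme: N-GST recombinant human c-Kit aa 544-end carrying V654A.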

[2] = molecular target: T2, PDGFRalpha(V561D) (Homo sapiens, UniProt P16234, V561D); assay: PDGFRalpha(V561D) assay; assay type: biochemical; conditions: recombinant human PDGFRalpha aa 550-end, 200 μM ATP, 1.4E-06 means 1.4×10^−6, read-out: Inhibition (IC50) of PDGFRα (V561D)
T2 construct: recombinant human PDGFRalpha, amino acids 550end containing the V561 D mutation; 6His (N)
T2 sequence (P16234 550-1089 V561D): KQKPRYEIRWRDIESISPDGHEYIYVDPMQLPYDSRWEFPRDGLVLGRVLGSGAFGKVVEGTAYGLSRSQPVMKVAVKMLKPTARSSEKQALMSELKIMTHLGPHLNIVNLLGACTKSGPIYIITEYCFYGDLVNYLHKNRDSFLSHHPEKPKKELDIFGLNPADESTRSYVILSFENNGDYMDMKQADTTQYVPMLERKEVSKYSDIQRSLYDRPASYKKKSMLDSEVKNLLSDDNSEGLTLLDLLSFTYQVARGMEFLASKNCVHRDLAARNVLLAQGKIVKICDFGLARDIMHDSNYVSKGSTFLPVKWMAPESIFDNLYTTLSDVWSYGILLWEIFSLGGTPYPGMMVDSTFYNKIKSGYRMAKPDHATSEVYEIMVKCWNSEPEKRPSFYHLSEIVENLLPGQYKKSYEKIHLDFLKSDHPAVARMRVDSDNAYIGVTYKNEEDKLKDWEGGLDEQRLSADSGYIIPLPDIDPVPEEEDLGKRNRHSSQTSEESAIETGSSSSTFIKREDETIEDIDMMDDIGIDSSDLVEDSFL
Method in brief: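 Radiometric filter-binding assay: substrate phosphorylation by recombinant N-His-tagged human PDGFRα 550-end V561D was quenched with 3% phosphoric acid after 40 min at room temperature, then counted.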

T1 sequence (P10721 544-976 V654A): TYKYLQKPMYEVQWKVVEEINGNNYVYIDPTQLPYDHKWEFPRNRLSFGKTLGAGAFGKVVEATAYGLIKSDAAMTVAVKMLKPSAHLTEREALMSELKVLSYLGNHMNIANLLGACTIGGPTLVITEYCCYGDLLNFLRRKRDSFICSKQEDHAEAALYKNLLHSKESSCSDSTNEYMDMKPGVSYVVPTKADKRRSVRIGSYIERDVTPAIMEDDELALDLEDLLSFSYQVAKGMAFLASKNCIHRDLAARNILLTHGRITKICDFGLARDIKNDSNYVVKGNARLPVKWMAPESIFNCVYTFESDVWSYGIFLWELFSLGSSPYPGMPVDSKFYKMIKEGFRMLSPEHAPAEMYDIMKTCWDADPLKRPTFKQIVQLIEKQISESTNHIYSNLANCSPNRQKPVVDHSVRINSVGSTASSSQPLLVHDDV

SMILES	IC50 [1] [µM]	IC50 [2] [µM]
O=C(COc1ccc(-n2cc(-c3cc4cc(F)ccc4[nH]c3=O)nn2)cc1)N1CCNCC1 [A141, 6-fluoro-3-{1-[4-(2-oxo-2-piperazin-1-yl-ethoxy)-phenyl]-1H-[1,2,3]triazol-4-yl}-1H-quinolin-2-one]	0.0038	0.0028
O=C(c1ccc(-n2cc(-c3cc4ccc(C(F)(F)F)cc4[nH]c3=O)nn2)cc1)N1CCNCC1 [A142, 3-{1-[4-(piperazine-1-carbonyl)-phenyl]-1H-[1,2,3]triazol-4-yl}-7-trifluoromethyl-1H-quinolin-2-one]	0.28	2.8
NC1CCN(C(=O)c2ccc(-n3cc(-c4cc5cc(F)c(F)cc5[nH]c4=O)nn3)cc2)CC1 [A143, 3-{1-[4-(4-amino-piperidine-1-carbonyl)-phenyl]-1H-[1,2,3]triazol-4-yl}-6,7-difluoro-1H-quinolin-2-one]	0.019	0.31
NC1CCN(C(=O)c2ccc(-n3cc(-c4cc5cc(F)ccc5[nH]c4=O)nn3)cc2)CC1 [A144, 3-{1-[4-(4-amino-piperidine-1-carbonyl)-phenyl]-1H-[1,2,3]triazol-4-yl}-6-fluoro-1H-quinolin-2-one]	0.012	0.17
O=C1CNCCN1c1ccc(-n2cc(-c3cc4cc(F)c(F)cc4[nH]c3=O)nn2)cc1 [A145, 6,7-difluoro-3-{1-[4-(2-oxo-piperazin-1-yl)-phenyl]-1H-[1,2,3]triazol-4-yl}-1H-quinolin-2-one]	0.022	0.18
CN1CCN(C(=O)c2ccc(-n3cc(-c4cc5c(F)cccc5[nH]c4=O)nn3)cc2)CC1 [A149, 5-fluoro-3-{1-[4-(4-methyl-piperazine-1-carbonyl)-phenyl]-1H-[1,2,3]triazol-4-yl}-1H-quinolin-2-one]	0.006	0.012
CN1CCN(C(=O)c2ccc(-n3cc(-c4cc5cccc(F)c5[nH]c4=O)nn3)cc2)CC1 [A150, 8-fluoro-3-{1-[4-(4-methyl-piperazine-1-carbonyl)-phenyl]-1H-[1,2,3]triazol-4-yl}-1H-quinolin-2-one]	0.049	0.037
CN1CCN(C(=O)c2ccc(-n3cc(-c4cc5cc(Cl)ccc5[nH]c4=O)nn3)cc2)CC1 [A151, 6-chloro-3-{1-[4-(4-methyl-piperazine-1-carbonyl)-phenyl]-1H-[1,2,3]triazol-4-yl}-1H-quinolin-2-one]	0.003	0.001
CN1CCN(C(=O)c2ccc(-n3cc(-c4cc5c(F)cc(F)cc5[nH]c4=O)nn3)cc2)CC1 [A152, 5,7-difluoro-3-{1-[4-(4-methyl-piperazine-1-carbonyl)-phenyl]-1H-[1,2,3]triazol-4-yl}-1H-quinolin-2-one]	0.011	0.023
CN1CCN(C(=O)c2cccc(-n3cc(-c4cc5cc(F)ccc5[nH]c4=O)nn3)c2)CC1 [A153, 6-Fluoro-3-{1-[3-(4-methyl-piperazine-1-carbonyl)-phenyl]-1H-[1,2,3]triazol-4-yl}-1H-quinolin-2-one]	0.024	0.004
CN1CCN(C(=O)c2ccc(-n3cc(-c4cc5ccc(Cl)cc5[nH]c4=O)nn3)cc2)CC1 [A154, 7-chloro-3-{1-[4-(4-methyl-piperazine-1-carbonyl)-phenyl]-1H-[1,2,3]triazol-4-yl}-1H-quinolin-2-one]	0.011	0.003
CN1CCCN(c2ccc(-n3cc(-c4cc5cc(F)cnc5[nH]c4=O)nn3)cc2)CC1 [A155, 6-fluoro-3-{1-[4-(4-methyl-[1,4]diazepan-1-yl)-phenyl]-1H-[1,2,3]triazol-4-yl}-1H-[1,8]naphthyridin-2-one]	0.081	0.061
CN1CCN(C(=O)c2ccc(-n3cc(-c4cc5c(F)c(F)ccc5[nH]c4=O)nn3)cc2)CC1 [A156, 5,6-difluoro-3-{1-[4-(4-methyl-piperazine-1-carbonyl)-phenyl]-1H-[1,2,3]triazol-4-yl}-1H-quinolin-2-one]	0.026	0.04
